The target in experiment [1] is T1, 14-3-3 zeta (Homo sapiens, UniProt P63104).
T1 construct: made in house; host or cells: E. coli DH5α (vector pGEX-KT)
T1 sequence (P63104 1-245): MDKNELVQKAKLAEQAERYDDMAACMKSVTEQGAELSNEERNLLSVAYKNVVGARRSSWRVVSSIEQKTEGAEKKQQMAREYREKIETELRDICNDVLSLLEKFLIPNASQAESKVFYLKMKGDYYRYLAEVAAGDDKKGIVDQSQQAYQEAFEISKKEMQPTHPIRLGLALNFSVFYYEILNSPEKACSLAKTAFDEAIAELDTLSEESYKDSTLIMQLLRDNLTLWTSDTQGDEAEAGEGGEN
The experiment is described as follows: Surface plasmon resonance, GST-14-3-3 zeta binding to immobilized biotinylated Raf-259 peptide (binding and kinetics). The following applies: isoform zeta. The method, then:
These experiments were performed using the BIAcore 2000 (Pharmacia). The basic principles and detection methods have been reviewed previously (Jonsson et al. Biotech. 11:620-7, 1991; Jonsson et al. Ann Bio Clin 51:19-26, 1993 which are incorporated by reference). In brief, 5 μl of the biotinylated raf-259 peptide (1 nM) was immobilized onto streptavidin-coated (SA5, Pharmacia) sensor chips at a flow rate of 5 μl/min at 25° C. […] To phosphorylate the immobilized peptides, 5 U of PKA in a buffer containing 200 μM ATP in 50 μl was infused over the chip at a flow rate of 2 μl/min at 30° C.
Because the surface plasmon resonance detects binding in real time, this method can be used to directly determine the rates of association (kon) and dissociation (koff). For these kinetic measurements, GST/14-3-3 fusion proteins were injected over a range of concentrations between 200 nM and 5 μM. The "on" rate, kon, was determined by calculating dR/dt for the initial linear portion of association using the Biaevaluation software (Pharmacia). Because ligand rebinding to the sensor chip can affect the "off" rate (koff, Panayotou et al. Mol Cell Biol 13:3567-76, 1993 which is incorporated by reference), we measured the "off" rate in the presence of 50 μM free ligand by using the coinject function of the Biacore. The "off" rate measured in the absence of 50 μM free ligand was approximately 10-fold lower.
The biotinylated, […] Raf-1 peptide (SEQ ID NO: 4) was coupled to avidin coated chip surface to study the kinetics of its binding to 14-3-3 zeta. The association rate was determined to be approximately 2.3×10^4 M^-1×s^-1 and the dissociation rate was determined to be approximately 2.8×10^-3 s^-1. To minimize the effects of protein rebinding to the surface of the sensor chip, the dissociation rate was measured in the presence of 50 μM free phosphorylated Raf-1 peptide.

In experiment [2] the target is T1, 14-3-3 zeta. The experiment is described as follows: Displacement of 32P-labeled phosphorylated Raf-259 peptide from immobilized GST/14-3-3 zeta (scintigraphy). The format is binding. The method, then:
The 14-3-3 protein isoforms for use in binding studies with the above peptides were prepared as proteins fused with glutathione-S-transferase (GST) and immobilized to glutathione agarose beads. GST/14-3-3 fusion proteins were made by generating BamHI and EcoRI restriction endonuclease sites (underlined) at the 5' and 3' ends respectively of the 14-3-3 cDNAs by polymerase chain reaction (PCR) using the following isoform sequence specific pairs of primers: 14-3-3 beta, […] (SEQ ID NO: 11), […] (SEQ ID NO: 12); 14-3-3 eta […] (SEQ ID NO: 13), […] (SEQ ID NO: 14); 14-3-3 tau […] (SEQ ID NO: 15), […] (SEQ ID NO: 16); 14-3-3 zeta […] (SEQ ID NO: 17), […] (SEQ ID NO: 18). The cDNA products were digested with BamHI and EcoRI, subcloned into the vector pGEX-KT (Guan and Dixon, Anal Biochem 192: 262-7, 1991 which is incorporated by reference). The vector was used to transform the DH5α strain of E. Coli. GST-14-3-3 fusion protein expression in log-growth phase bacterial cultures was accomplished by induction with 100 μM isopropyl β-D-thiogalactopyranoside (IPTG; Gold Biotechnology, St. Louis) for 4 hours. Cells were disrupted by sonication and lysates, containing 1% Triton X-100, were incubated with glutathione agarose beads (Sigma, St. Louis) at 4° C. overnight. Fusion proteins were eluted by incubation with 10 mM reduced glutathione (Sigma, St. Louis) in phosphate buffered saline for 1 hour at room temperature, dialyzed in phosphate buffered saline and quantitated by Coomassie staining SDS polyacrylamine gels compared against bovine serum albumin standards.
The Raf-259 peptide (SEQ ID NO: 4) was phosphorylated in vitro using protein kinase A (PKA) and [^32 P]-γ-ATP following the manufacturers instruction (PKA, New England Biolabs) with 20 μCi of [^32 P]-γ-ATP (NEN-Dupont, 6000 Ci/mmol). The efficiency of phosphorylation was calculated to be between 7 and 12% based upon the specific activity of the labelled peptide.
The labeled peptide was then incubated with immobilized 14-3-3 zeta fusion protein and binding of the labelled peptide was measured. […] Binding was also sequence specific. […]

Data on one molecule can be found in patent publication US6207393A, “Inhibition of intracellular signal transduction by 14-3-3-binding peptides” (Washington University, priority 1999, dated 2001).

Each structure is given as a SMILES string. Read-outs that look alike come from different tables or passages of the source. Where a SMILES comes first, the peptide text is derived from it. [ ]: non-standard residue; d: D form. pS = N[C@@H](COP(=O)(O)O)C(=O)O

For `CC(C)C[C@H](N)C(=O)N[C@@H](CO)C(=O)N[C@@H](CCC(N)=O)C(=O)N[C@@H](CCCNC(=N)N)C(=O)N[C@@H](CCC(N)=O)C(=O)N[C@@H](CCCNC(=N)N)C(=O)N[C@@H](CO)C(=O)N[C@H](C(=O)N[C@@H](COP(=O)(O)O)C(=O)N[C@H](C(=O)N1CCC[C@H]1C(=O)N[C@@H](CC(N)=O)C(=O)N[C@H](C(=O)N[C@@H](Cc1c[nH]cn1)C(=O)N[C@@H](C)C(=O)O)C(C)C)[C@@H](C)O)[C@@H](C)O` [pS-Raf-259] (H-LSQRQRST[pS]TPNVHA-OH), the Kd at 14-3-3 zeta [1] (read-out: KD) amounted to 122 nM. Moreover, the koff at 14-3-3 zeta [1] (read-out: koff) turned out to be 0.0028 s⁻¹. Besides, the kon on 14-3-3 zeta [1] (read-out: kon) is 23000 M⁻¹ s⁻¹. Also, the IC50 at 14-3-3 zeta [2] (corrected for 7-12% efficiency of in vitro phosphorylation, read-out: true IC50) lay within 70 to 240 nM; on 14-3-3 zeta [2] (not corrected for efficiency of phosphorylation, read-out: IC50), 1000 to 2000 nM.
